In a melting point compilation (Tetko et al.; mined from patent text by program, amines drawn as free bases though some values may be those of a salt) one finds melting point data, which are given here for 36 compounds.

The structures appear in SMILES notation. Some results are limits rather than exact numbers.

One may read the melting point as the temperature, or range, at which the solid turns liquid.

Regarding `Clc1ccc2c(Nc3ccccc3)ccnc2c1`, the melting point turned out to be 207 °C. Take `O=CC=C(c1ccccc1F)c1ccccc1F`: the melting point was in the range of 75 to 77 °C. To `CCN(CC)C(C)COc1ccc(NC(=O)C#Cc2ccc(Cl)cc2Cl)cc1` (stereo unspecified) belongs 70 to 72 °C. In turn, `CC(C)(C)OC(=O)COC1=CC(=NS(=O)(=O)c2cccs2)c2ccccc2C1=O` had a melting point of 153 to 155 °C.

Turning to `CN(Cc1ccc([N+](=O)[O-])cc1)Cc1nc(-c2cc(C(C)(C)C)c(O)c(C(C)(C)C)c2)cs1`, the melting point was in the range of 111 to 112 °C.

Compound `O=C(c1cccnc1)n1nc(-c2ccc(Br)cc2)cc1C(F)(F)F` returned a melting point of 150 to 152 °C.

For `CCCCCCCCCCCCCCCCCC(=O)Nc1cccc(C(=O)N(CC(=O)OCC)CC(=O)OCC)c1`, the melting point lay in the range of 76 to 79 °C. To `Cc1nc(-c2ccccc2)c(-c2ccccc2)nc1N(C)CCCCOCC(=O)OC(C)(C)C` belongs 48 to 51 °C.

In turn, `COC(=O)CC(O)C(O)CC(=O)OC` (stereo unspecified) had a melting point of 80 to 81 °C. Take `COC(=O)c1cc2cc(C3OCCO3)ccc2[nH]1`: the melting point was 71 to 72 °C. To `Nc1cccc(CN2CCN(C(c3ccccc3)c3ccccc3)CC2)n1` belongs 144 to 145 °C. Regarding `COc1cc(P(c2ccccc2)c2ccccc2)c(Br)c(OC)n1`, the melting point lay in the range of 150 to 151 °C.

Compound `COc1ccc(CC#N)cc1OC1CCCC1` yielded a melting point of 32 to 34 °C.

The compound `CC(=O)Nc1ccc(F)c(-c2cccnc2)c1F` gave a melting point of 154 to 155 °C. Take `CC(=O)OCC(COC(C)=O)OCn1cnc2c(=O)[nH]c(N)nc21`: the melting point fell in the range of 237 to 239 °C.

As for `COC(=O)c1cc(C#CCOC2CCCCO2)c(C(F)(F)F)cc1N` (stereo unspecified), the melting point amounted to 88 °C.

Regarding `CC(=O)Nc1cccc2c(-c3ccccc3)c([N+](=O)[O-])oc12`, the melting point lay within 224 to 226 °C. Regarding `CN1CCN(c2ccc3ccccc3n2)CC1`, the melting point was in the range of 110 to 112 °C.

Take `CCOC(=O)ONC(=N)c1cc(C(C)(C)C)c(OCOCCOC)c(C(C)(C)C)c1`: the melting point fell in the range of 115 to 117 °C. To `CCCCc1ccc(CCCCC(COC(C)=O)(COC(C)=O)NC(C)=O)cc1` belongs 68 to 71 °C. To `CN1CCN(c2cc3c(Cl)cccc3c(=O)[nH]2)CC1CO` (stereo unspecified) belongs 212 to 214 °C; to `Cc1oc(C=Cc2cccc(Cl)c2)nc1CC#N`, 119 to 120 °C; to `COc1ccc2cc(-c3ccc(Br)cc3)[nH]c(=O)c2c1`, over 250 °C. To `c1ccc(C(c2ccc3[nH]nnc3c2)n2cncn2)cc1` (stereo unspecified) belongs 183 °C; to `Cc1nc(C)n(CCOCC2=C(C(=O)OC(C)C)C(c3ccccc3Cl)C(C(=O)Nc3ccccn3)=CN2)c1C` (stereo unspecified), 180 to 182 °C; to `O=c1c(Cl)c(SCc2ccc(Cl)cc2)cnn1-c1ccccc1`, 154 to 155 °C. `Fc1cc(F)c2oc(CCC#Cc3ccccn3)nc2c1` came in with a melting point of 93.5 to 94 °C. `COC(=O)C1=C(C)NC(C)=C(C)C1c1ccccc1` (stereo unspecified) registered a melting point of 120 °C.

Turning to `CCOc1nn(Cc2ccc(OC)c(OCc3nc(-c4ccccc4)oc3C)c2)cc1CCC(=O)O`, the melting point is 136 to 137 °C. To `CCOC(=O)c1cnn2c1c(SC)nc1ccccc12` belongs 97 to 98 °C.

The compound `COc1ccc(N2CCOCC2)c2sc(-c3nc4c([nH]3)CCN(C(C)=O)C4)nc12` showed a melting point of 155 to 157 °C. To `O=C1CCCCc2cc(I)ccc2N1` belongs 207 to 208 °C; to `CC(C)(O)c1cc(Br)ccc1NC(=O)CCl`, 133 to 134 °C. To `Cn1c(C(F)(F)F)cc(=O)n(-c2c(F)cc(Cl)c3[nH]c(=O)oc23)c1=O` belongs 67 to 71 °C. In turn, `CC(C)(C)c1ccc(NC(=O)c2ccc(C3NOC(=O)N3)cc2)cc1` (stereo unspecified) displayed a melting point of over 300 °C. Compound `CCCCC(CC)COC(=O)C(=Cc1ccc(-c2nc3ccccc3o2)cc1)C(=O)CC` (stereo unspecified) yielded a melting point of 82 to 83 °C.
